Experimental data reported in patent publication US8063240B2, “Prostaglandin E1 and E2 analogs for the treatment of various medical conditions” (Cayman Chemical Company, Incorporated, priority 2007, dated 2011).

Experiments:
[1] = Stability of purified HPLC peak left overnight in mobile phase; assay type: physicochemical; settings: mobile phase 70:30:0.1 MeOH/H2O/AcOH
Method: Mobile phase: 70:30:0.1 MeOH/H2O/AcOH—premixed
Sample concentration: sample was dissolved at 100 mg/mL in 70:30 MeOH/H2O Peaks were collected manually at 0° C. and purified batches were kept at −20° C. at the end of each day. Peak 2 (title compound, 14.6 minute retention time) degrades about 6% when left at 4° C. overnight in mobile phase and degrades minimally (<1%) when left at −20° C. overnight. […] LCMS data of both products confirm masses consistent with the designations presented herein.

human EP2 receptor = biological target: T1, human EP2 receptor (Homo sapiens, UniProt P43116); assay: Functional Assay #2AGii (Cerep EP2 Agonist Assay), cAMP production, HTRF detection; assay type: cell-based; settings: mean of N=2, percent of control response to 10 μM PGE2, transfected CHO cells
T1 construct: host or cells: CHO
Text: Alternative EP2 Receptor Agonism Assay
(Cerep, Catalog reference 758-54a; WILSON, R. J., RHODES, S. A., WOOD, R. L., SHIELD, V. J., NOEL, L. S., GRAY, D. W. and GILES H. (2004), Functional pharmacology of human prostanoid EP2 and EP4 receptors, Eur. J. Pharmacol., 501, 49.)
Evaluation of the agonist activity of compounds at the human EP2 receptor in transfected CHO cells, determined by measuring their effects on cAMP production using the HTRF detection method.
(§1) The cells are suspended in HBSS buffer (Invitrogen) complemented with HEPES 20 mM (pH 7.4) and 500 μM IBMX, then distributed in microplates at a density of 10^4 cells/well and incubated for 30 minutes at 37° C. in the absence (control) or presence of the test compound or the reference agonist. For stimulated control measurements, separate assay wells contain 10 μM PGE2. Following incubation, the cells are lysed and the fluorescence acceptor (D2-labeled cAMP) and fluorescence donor (anti-cAMP antibody labeled with europium cryptate) are added. After 60 minutes at room temperature, the fluorescence transfer is measured at λex=337 nm and λem=620 and 665 nm using a microplate reader (Rubystar, BMG). The cAMP concentration is determined by dividing the signal measured at 665 nm by that measured at 620 nm (ratio). The results are expressed as a percent of the control response to 10 μM PGE2. The standard reference agonist is PGE2, which is tested in each experiment at several concentrations to generate a concentration-response curve from which its EC50 value is calculated.

human EP1 receptor = biological target: T2, human EP1 receptor (Homo sapiens, UniProt P34995); assay: Functional Assay #1AGii (Cerep EP1 Agonist Assay), cytosolic Ca2+ mobilization, fluorimetric detection; assay type: cell-based; settings: mean of N=2, percent of control response to 100 nM PGE2, transfected HEK-293 cells
T2 construct: host or cells: HEK-293
T2 sequence (P34995 1-402): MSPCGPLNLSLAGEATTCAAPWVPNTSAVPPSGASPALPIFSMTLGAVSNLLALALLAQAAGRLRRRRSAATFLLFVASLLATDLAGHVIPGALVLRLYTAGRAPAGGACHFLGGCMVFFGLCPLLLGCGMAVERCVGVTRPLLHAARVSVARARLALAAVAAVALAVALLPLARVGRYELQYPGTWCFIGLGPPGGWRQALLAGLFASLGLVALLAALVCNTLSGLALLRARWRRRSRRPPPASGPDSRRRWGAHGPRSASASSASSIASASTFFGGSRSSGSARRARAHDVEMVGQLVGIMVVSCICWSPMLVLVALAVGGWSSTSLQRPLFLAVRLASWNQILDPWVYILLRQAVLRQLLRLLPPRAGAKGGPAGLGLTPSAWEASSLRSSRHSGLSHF
Text: Alternative EP1 Receptor Agonism Assay
(Cerep, Catalog reference 722-55a; UNGRIN, M. D., SINGH L. M. R., STOCCO, R., SAS, D. E. and ABRAMOVITZ, M. (1999), An automated aequorin luminescence-based functional calcium assay for G-Protein-Coupled Receptors. Analytical Biochem., 272, 34.)
Evaluation of the agonist activity of compounds at the human EP1 receptor in transfected HEK-293 cells, determined by measuring their effect on cytosolic Ca^2+ ion mobilization using a fluorimetric detection method.
The cells are suspended in DMEM buffer (Invitrogen), then distributed in microplates at a density of 3.10^4 cells/well. The fluorescent probe (Fluo4 NR, Invitrogen) mixed with probenicid in HBSS buffer (Invitrogen) complemented with 20 mM Hepes (Invitrogen) (pH 7.4) is then added into each well and equilibrated with the cells for 30 minutes at 37° C. then 30 minutes at 22° C. Thereafter, the assay plates are positioned in a microplate reader (CellLux, PerkinElmer) which is used for the addition of the test compound, reference agonist or HBSS buffer (basal control), and the measurements of changes in fluorescence intensity which varies proportionally to the free cytosolic Ca^2+ ion concentration. For stimulated control measurements, PGE2 at 100 nM is added in separate assay wells.
The results are expressed as a percent of the control response to 100 nM PGE2. The standard reference agonist is PGE2, which is tested in each experiment at several concentrations to generate a concentration-response curve from which its EC50 value is calculated.

human EP4 receptor = biological target: T3, human EP4 receptor (Homo sapiens, UniProt P35408); assay: Functional Assay #4AGii (Cerep EP4 Agonist Assay), cAMP production, HTRF detection; assay type: cell-based; settings: mean of N=2, percent of control response to 1 μM PGE2, transfected CHO cells
T3 construct: host or cells: CHO
Method: Alternative EP4 Receptor Agonism Assay
(Cerep, Catalog Reference 758-49a; Wilson, R. J., et al., Ibid.)
Evaluation of the agonist activity of compounds at the human EP4 receptor in transfected CHO cells, determined by measuring their effects on cAMP production using the HTRF detection method.
as §1, with “2.10^4” for “10^4”, “10” for “30”, “room temperature” for “37° C.”, “1” for “10”

T1 sequence (P43116 whole entry): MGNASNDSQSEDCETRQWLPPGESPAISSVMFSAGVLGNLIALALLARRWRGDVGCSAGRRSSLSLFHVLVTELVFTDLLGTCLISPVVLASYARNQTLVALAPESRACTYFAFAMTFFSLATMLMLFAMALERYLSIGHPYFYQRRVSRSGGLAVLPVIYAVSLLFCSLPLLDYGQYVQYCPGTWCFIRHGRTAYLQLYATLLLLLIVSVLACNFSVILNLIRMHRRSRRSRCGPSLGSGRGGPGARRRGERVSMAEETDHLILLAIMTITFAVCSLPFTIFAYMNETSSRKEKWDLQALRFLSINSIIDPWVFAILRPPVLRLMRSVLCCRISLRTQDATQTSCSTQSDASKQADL
T3 sequence (P35408 whole entry): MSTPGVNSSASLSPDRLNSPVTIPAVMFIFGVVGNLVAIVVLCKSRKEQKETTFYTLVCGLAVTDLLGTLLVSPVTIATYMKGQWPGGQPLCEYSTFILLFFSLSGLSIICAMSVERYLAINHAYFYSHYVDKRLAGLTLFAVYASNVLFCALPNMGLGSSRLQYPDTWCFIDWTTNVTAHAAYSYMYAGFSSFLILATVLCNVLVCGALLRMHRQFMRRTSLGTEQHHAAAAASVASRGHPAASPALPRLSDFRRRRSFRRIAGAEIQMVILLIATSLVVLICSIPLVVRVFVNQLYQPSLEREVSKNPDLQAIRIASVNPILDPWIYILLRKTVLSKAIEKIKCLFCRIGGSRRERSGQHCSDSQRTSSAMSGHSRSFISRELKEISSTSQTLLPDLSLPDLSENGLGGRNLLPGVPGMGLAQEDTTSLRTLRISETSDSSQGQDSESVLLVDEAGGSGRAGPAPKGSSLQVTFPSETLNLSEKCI

| degradation when left overnight in mobile phase ([1]; 4° C. overnight) | degradation when left overnight in mobile phase ([1]; −20° C. overnight) [%] | % Control Agonist response @ compound concentration (human EP2 receptor; 0.1 μM) [%] | % Control Agonist response @ compound concentration (human EP2 receptor; 1 μM) [%] | % Control Agonist response @ compound concentration (human EP2 receptor; 10 μM) [%] | % Control Agonist response @ compound concentration (human EP1 receptor; 0.1 μM) [%] | % Control Agonist response @ compound concentration (human EP1 receptor; 1 μM) [%] | % Control Agonist response @ compound concentration (human EP1 receptor; 10 μM) [%] | % Control Agonist response @ compound concentration (human EP4 receptor; 0.1 μM) [%] | % Control Agonist response @ compound concentration (human EP4 receptor; 1 μM) [%] | % Control Agonist response @ compound concentration (human EP4 receptor; 10 μM) [%] | Compound |
| --- | --- | --- | --- | --- | --- | --- | --- | --- | --- | --- | --- |
| about 6% | < 1 | – | – | – | – | – | – | – | – | – | O=C(O)CCC/C=C\C[C@H]1C(=O)C[C@H](F)[C@@H]1/C=C/[C@@H](O)C1Cc2ccccc2C1 (single isomer, unassigned) [Example 17] |
| – | – | 0 | −1 | 5 | 80 | 88 | 144 | −1 | 4 | 29 | O=C(O)CCC/C=C\C[C@H]1C(=O)C[C@@H](O)[C@@H]1/C=C/[C@@H](O)c1cc2ccccc2s1 [Example 7, (Z)-7-((1R,2R,3R)-2-((R,E)-3-(benzo[b]thiophen-2-yl)-3-hydroxyprop-1-enyl)-3-hydroxy-5-oxocyclopentyl)hept-5-enoic Acid] |
